Measured values published in patent US7122668B2, “Platinum complexes and their use in therapy” (priority 2002, dated 2006).

Columns and labels:
OV-1063 cells [1] = settings: 5 hr, 6.5 μM
Excerpt: (§1) (1) By staining of the C-26 and OV-1063 cells with Merocyanine 540 (MC 540) (Molecular probes, Oregon, USA) and 4′, 6-diamidino-2-phenylindone dihydrochloride (DAPI) (Molecular probes, Oregon, USA). This assay is based on the observation that soon after the initiation of apoptosis, phosphatidylserine (PS) translocates from the inner face of the plasma membrane to the cell surface. At this point, PS can be easily detected by staining with MC 540, which has a strong affinity to PS^(25). Chromatin condensation was assessed by staining with DAPI, which preferentially stains double stranded DNA. In the following experiments samples containing 5*10^5 cells were cultured on 6-well plates covered with a glass coverslip. After treatment of cells with IC50 of the complexes, cells were washed with PBS and incubated for 2 min in the dark in 500 μl of PBS containing 2.5 μl of MC 540 (1 mg/ml). After that cells were washed with PBS, fixated with 4% formaldehyde and stained with 300 μl DAPI (3 μM). Thereafter, glass coverslip was placed on a glass slide and photographed using a fluorescence confocal microscope.
(§2) Apoptosis, also known as programmed cell death, is involved in the regulation of cell number in multicellular organism, and the pathogenesis of various diseases, including tumor progression, neurodegenerative disorders and viral infections. […]

C-26 cells [2] = settings: 5 hr, 4.5 μM
Excerpt: as §1, §2

OV-1063 cells [3] = experiment: Determination of Pt-DNA adducts by FAAS; assay type: cell-based, human
Protocol: (§3) Cells were seeded for 48 hr before one of the drugs was added to the culture medium. After 24 hr of exposure, the complexes were removed and the cells washed twice with ice-cold PBS and pelleted. DNA from platinum-containing material (2*10^6 cells) was extracted from the cell pellet by QIAamp DNA Blood Kit (QIAGEN, Germany) according to the manufacture instructions. DNA yield was determined by measuring the concentration of DNA in the eluate by absorbance at 260 nm.

C-26 cells [4] = experiment: Determination of Pt-DNA adducts by FAAS; assay type: cell-based, human
Protocol: as §3

[5] = system: caspase-3 in OV-1063 cells; experiment: EnzChek Caspase-3 assay; assay type: cell-based, human
Excerpt: (§4) (2) By the EnzChektm Caspase-3 Assay Kit (Molecular probes, Eugene, Oreg.). This Kit allows the detection of apoptosis by assaying for increases in caspase-3 and other DEVD-specific protease activities (e.g., caspase-7). The basis for the assay is rodamine 110 bis-(N-CBZ-aspartil-L-glutarnyl-L-valyl-aspartic acid amide) (Z-DEVD-R110). This substrate is a bisamide derivative of rhodamine 110(R110) containing DEVD peptides covalently linked to each of R110's amino groups. Upon enzymatic cleavage, the non-fluorescent bisamide substrate converted to the fluorescent R110, which can be quantified by fluorescence microplate reader using excitation at 485±10 nm and emission detection at 535±10 nm.
(§5) (12) (5 μM and 7.5 μM, respectively) for 5 or 16 hr. Both “induced” and “control” cells were then harvested and lysed. Enzyme reactions were performed in 96-well plates with 50 μg of cytosolic proteins (55 minutes of incubation) and with a final concentration of 25 μM Z-DEVD-R110 substrate as described in the kit protocol.

caspase-3 in C-26 cells = experiment: EnzChek Caspase-3 assay; assay type: cell-based, human; settings: 4.5 μM complex, cisplatin 1.5 μM, 5 or 16 hrs
Excerpt: as §4, §5

C-26 cells [6] = assay type: cell-based; settings: cell lines of Table 1
Protocol: A human ovarian carcinoma cell line (OV-1063), established at the Hadassah University hospital and human colon carcinoma cell line (C-26) were maintained in RPMI-1640 medium supplemented with 10% FCS, antibiotics and glutamine. All culture medium components were purchased from Biological Industries (Beit-HaEmek, Israel). Both cell lines were maintained at 37° C. in a water-jacketed CO2 incubator.
Cytotoxicity of the synthesized complexes was tested by the methylene blue (MB) staining assay^(19). A fixed number of exponentially growing cells in 200 μl medium were plated in 96-microwell, flat-bottomed plates. For each of the complexes tested, 4 well were used. Following 24 hr in culture, 20 μl of different concentration of the complexes were added to each well containing untreated cells. Normal saline was added to the controls. Cells were exposed to complexes for 4, 24, or 72 hr. At the end of exposure for a fixed time interval, the treated cells as well as parallel control cells were washed and incubation was continued in fresh medium until termination of the experiment. Following 72 hr of growth, cells were fixed by adding 50 μl of 2.5% of glutaraldehyde to each well for 15 min. Fixed cells were rinsed 10 times with fresh de-ionized water and once with borate buffer (0.1 M, pH=8.5), dried and stained with MB (100 μl of 1% solution in 0.1 M borate buffer, pH=8.5) for 1 hr at room temperature. Stained cells were rinsed thoroughly with de-ionized water to remove any non-cell-bound die and then dried. The MB bound to the fixed cells was extracted by incubation at 37° C. with 200 μl of 0.1N HCl for 1 hr, and the net optical density (OD) of the die in each well was determined by a plate spectrophotometer (Labsystems Multyskan BICHROMATIC, Finland) at 620 nm.

calf thymus DNA = experiment: DNA binding (calf thymus DNA platination)
Protocol: The formation of calf thymus DNA platination was also examined. To this end, calf thymus DNA was incubated with different compounds (Table 3) in which the following parameters were determined: […]

For C1CCNCC1.Cc1ccncc1.[Cl][Pt][Cl] [Complex 5, trans-[PtCl2(4-picoline)(piperidine)]], the “apoptosis by MC 540/DAPI staining” value (OV-1063 cells [1]) was “large proportion of the OV-1063 cells appeared to be apoptotic”, the “apoptosis by MC 540/DAPI staining” value (C-26 cells [2]) was “slightly red-fluorescent” and the Pt-DNA adducts (OV-1063 cells [3]; OV-1063, 24 hr) was 41 pmol Pt/50 μg DNA. For the same compound, the “DNA platination relative to Cis-Pt” value (OV-1063 cells [3]; OV-1063 cells) was “the same”, the Pt-DNA adducts (C-26 cells [4]; C-26, 24 hr) was 51 pmol Pt/50 μg DNA and the “DNA platination relative to Cis-Pt” value (C-26 cells [4]; C-26 cells) was “the same”. The “caspase-3 activation, increase in fluorescence vs untreated cells” value ([5]; 5 hr, 6.5 μM piperidine complex or 7.5 μM piperazine complex) was roughly 2 fold, the “caspase-3 activation, increase in fluorescence vs untreated cells” value ([5]; 16 hr) was 3 fold and the caspase-3 fluorescent signal (caspase-3 in C-26 cells) was “no fluorescent signal”. The “folds less active than cisplatin” value (C-26 cells [6]) was 3 folds, the “% IEC/adduct, frequency of interstrand crosslinks” value (calf thymus DNA) was 2% and the “unwinding angle per adduct” value (calf thymus DNA) was 11°. The “t1/2 half time of the binding to calf thymus DNA” value (calf thymus DNA; 10 mM NaClO4, 37° C., ri = 0.08, differential pulse polarography) was 4.33 h, the “ΔTm, 0.01M Na+” value (calf thymus DNA; rb = 0.05, 0.01M Na+) was “+5.5 0.C” and the “ΔTm, 0.2 M” value (calf thymus DNA; rb = 0.05, 0.2 M) was “+0.5 0.C”. The “ΔΔεmax, maximum of the positive CD band at around 275 nm” value (calf thymus DNA; rb = 0.05, difference between control and platinated DNA) was 0.04.
